These results are taken from US6372493B1, “Hormone-secreting cells maintained in long-term culture” (Pacific Biomedical Research, Inc. [Cell Mart, Inc.], priority 1991, dated 2002).

The subject of assay [1] is daughter-islet cells from human pancreas whole islets. In words: Indirect immunofluorescence for insulin after glucose stimulation of daughter-islets (Example 22). The class given is cell-based. Particulars: 12 mM glucose 3 hours. As for the experimental part: The first assessment was made after three months in culture at the eighth passage generation and the second assessment was made after the sixteenth passage generation and eight months in continuous culture. On the average the daughter-islet cells were passed every 10-14 days. To test the response of the cells to glucose stimulation, the cultures were given a glucose poor basal medium. The basal medium as set forth in Formula VI below was a RPMI-1640 derivative containing 2 mM glucose. The cells remained in glucose poor medium for a period of 4 hours. The cells were first washed five times for 10 minutes each in the Formula VI medium prior to a 3 hour final incubation in the same basal medium. Subsequently the cultures were placed in the same medium, except that its total glucose concentration was 12 mM (instead of 2 mM glucose) for 3 hours and then prepared for indirect immunofluorescence to detect the presence of insulin.
The materials and partial protocol used in this example were as follows:
1. Primary antibody: Guinea pig monoclonal anti-insulin (human) [Peninsula Laboratories, Inc. IFK-7303G] working dilution used was 1:200.
2. Secondary antibody: Rabbit anti-guinea pig IgG (whole molecule) affinity isolated—TRITC conjugate (Sigma T-7153).
3. Negative control: 1 ml of the primary antiserum of the Guinea pig monoclonal anti-insulin (human) was added to 50 μgm of synthetic human insulin (Peninsula Laboratories, Inc.).
4. Nuclear counterstain: Hoechst 33258 (Sigma Chemical Co.), 0.1% was used.
The procedures followed for fixing the cells and the amount of primary and secondary antibodies used are given in detail in the description of procedures for Example 23. The control experiment was exposure only to the glucose poor basal medium.

The test system of assay [2] is cultured pancreatic islet cells (daughter-islets). As to the kind of experiment: Immunofluorescence for insulin after BUDR labelling and glucose stimulation (Example 23). The class given is cell-based, human. The settings on record: 12 mM glucose 6 hours. As for the experimental part: The tests were done on the same long term cultured daughter-islets described in Example 22, after 3 months of culture (8 passage generations) and after 8 months of cell culture (16 passage generations). Cultures of the daughter-islets were exposed to 30 μgm/ml BUDR for 5 days. The cultures were then placed in normal culture medium (OCZEM-M) for another 5 days. Cultures were then given the same glucose poor basal medium described in Formula VI for 4 hours. Subsequently medium containing 12 mM glucose, described in Example 22, was provided for 6 hours. Cells were immediately fixed and prepared for immunofluorescence. A FITC conjugated secondary antibody to detect BUDR incorporation during DNA synthesis and a TRITC conjugated secondary antibody to detect insulin synthesis in response to glucose stimulation were used according to the following protocol.
d. Cell preparation used procedures to swell the nucleus and preferentially fix the chromosomes in order to maximize the ability to detect BUDR incorporation. The procedures are commonly used to prepare human embryonic cells for florescence in situ hybridization (FISH).
9. Primary antibodies were added, 100 ul @ and the slides were incubated in a moist chamber for 18 hours at 20° C.
11. Secondary antibodies were added to EVERY slide (including the negative controls) in very dim light, 100 ul @ and then the slides were incubated in the dark for 60 minutes at room temperature.
16. After 24 hours the preparations were photographed with Kodak Ektar 100 using Zeiss optics and fluorescence filters (No 2 for Hoechst, No 9 for FITC and No 15 for TRITC).

Assay [3] has as its system human pancreas whole islets. In words: Insulin secretion of cultured whole islets in response to glucose, RIA (Example 24). The class given is cell-based. Particulars: +10 mM Glucose (Total 12 mM Glucose). As for the experimental part: The whole islets were isolated and obtained as described in Example 22. Prior to this experiment they had been in culture for 3¾ months in OCZEM-M and were passage generation 11. Insulin secretion was measured by RIA (Diagnostic Products Corporation).
The cultured whole islets were washed in basal medium [RPMI (5×@ 20 minutes) before the experiment. Then individual whole islets were cultured in the basal level medium containing 2 mM glucose described in Example 22 for 3½ hours (1 islet/1 ml). Each individual islet was then transferred to 1 ml of the basal medium containing an additional 10 mM glucose (to yield a total glucose concentration of 12 mM) and cultured for another 3½ hours. A comparison of the resulting amounts of secreted insulin is shown below in Table 16. Each individual islet was placed in a separate culture dish after the experiment so that future tests on insulin secretion could be measured on identified islets.

A further assay concerns daughter-islet cells. As to the kind of experiment: Daughter islet cell insulin secretion in response to glucose, RIA (Example 25). The class given is cell-based, human. Particulars: for Secreted Insulin: 17 months of culture, one hour. As for the experimental part:
The daughter-islets were obtained as progeny arising through cell division from islet cells in the cultured whole islets obtained as isolates from human pancreases. After 17 months of culture the daughter-islet cells were analyzed for their ability to secrete insulin in response to physiological levels of glucose. Formula VI, as described in Examples 22 and 24 with designated glucose concentrations of 2 mM (Basal level), 7.6 mM (Maintence level), 12 mM and 22 mM was used for the experiment. Care was taken to control the osmolarity of each medium to the range of 260-268 mOsm so that no strong osmotic shock was administered to the daughter-islet cells. The cells were washed 5 times, at 20 minutes each wash, with the basal level medium (2 mM glucose level) before the experiment. Each group of 5 daughter-islet was placed in 1 ml of the test medium and incubated at 37° C., with 5% CO2/5% O2/90% N2, for one hour. The medium was collected for assay and new medium containing 7.6 mM glucose was added. The one hour incubation, using the same conditions was then repeated. Those steps were repeated for the challenges with medium containing 12 mM and 22 mM glucose. Analysis of insulin secretion levels was done by RIA as described in Example 24.

Regarding `O=C[C@H](O)[C@@H](O)[C@H](O)[C@H](O)CO` [glucose, D(+)glucose], the “% of insulin positive cells” value was found to be 88% in assay [1] (3 mo. culture (8th passage generation)) and 87% in assay [1] (8 mo. culture (16th passage generation)). The “# cells positive for insulin (anti-insulin-RITC)” value in assay [1] (3 mo. culture (8th passage generation), 388 cells screened) is given as 343; in assay [1] (8 mo. culture (16th passage generation), 195 cells screened), 170. Besides, the values for the Insulin positive in assay [2] (8th passage generation (3 mo. culture)) and in assay [2] (16th passage generation (8 mos. culture)) were 86% and 90%, respectively. The “Insulin positive (number of cells)” value is 175 in assay [2] (8th passage generation (3 mo. culture), 204 cells analyzed) and 168 in assay [2] (16th passage generation (8 mos. culture), 187 cells analyzed). Besides, the “Secreted Insulin” value in assay [3] (2 Medium islets @) turned out to be 162.2 uIU/ml/hr; in assay [3] (2 Very small islets @ (<0.5 μm)) it was 84.5 uIU/ml/hr; in assay [3] (Extra large islet (>250 μm), 3½ hours), 86.7 uIU/ml/hr; in assay [3] (Large islet (˜150 μm)), 149.4 uIU/ml/hr; in the assay on daughter-islet cells (12 mM glucose) it was 38.6 μIU/ml/hour/10^3 cells; in the assay with daughter-islet cells (22 mM glucose), 144.5 μIU/ml/hour/10^3 cells. In addition, in the assay with daughter-islet cells (basal level 0.3 at 2 mM glucose), the “maximal response relative to the basal level” value came to 482 times.
